Assay results as given in paper PMC3130141 (Archives of Drug Information, 2011).

System: Japanese patients with advanced solid tumors
Assay: Adverse events by CTCAE version 3.0, Phase I dose-escalation study
Assay type: in vivo, human
[1] = all doses 10-25 mg, 18 patients

SMILES: Cc1ccc(C(=O)N(CCCN)C(c2nc3snc(C)c3c(=O)n2Cc2ccccc2)C(C)C)cc1 (stereo not shown) [AZD4877]
- Anorexia, patients with CTCAE grade ≥3 event (10 mg (N = 3)): 0 N (%)
- Any grade ≥3 event, patients with CTCAE grade ≥3 event (10 mg (N = 3)): 0 N (%)
- Constipation, CTCAE any grade, patients with AEs (10 mg (N = 3)): 1 (33) N (%)
- Constipation, patients with CTCAE grade ≥3 event (10 mg (N = 3)): 0 N (%)
- Diarrhea, CTCAE any grade, patients with AEs (10 mg (N = 3)): 2 (67) N (%)
- Dizziness, CTCAE any grade, patients with AEs (10 mg (N = 3)): 2 (67) N (%)
- Fatigue, CTCAE any grade, patients with AEs (10 mg (N = 3)): 1 (33) N (%)
- Fatigue, patients with CTCAE grade ≥3 event (10 mg (N = 3)): 0 N (%)
- Febrile neutropenia, patients with CTCAE grade ≥3 event (10 mg (N = 3)): 0 N (%)
- Insomnia, CTCAE any grade, patients with AEs (10 mg (N = 3)): 1 (33) N (%)
- Nasopharyngitis, CTCAE any grade, patients with AEs (10 mg (N = 3)): 0 N (%)
- Nausea, CTCAE any grade, patients with AEs (10 mg (N = 3)): 2 (67) N (%)
- Neutropenia, patients with CTCAE grade ≥3 event (10 mg (N = 3)): 0 N (%)
- Pyrexia, CTCAE any grade, patients with AEs (10 mg (N = 3)): 0 N (%)
- Rash, CTCAE any grade, patients with AEs (10 mg (N = 3)): 0 N (%)
- Urinary tract infection, patients with CTCAE grade ≥3 event (10 mg (N = 3)): 0 N (%)
- Anorexia, patients with CTCAE grade ≥3 event (15 mg (N = 3)): 0 N (%)
- Any grade ≥3 event, patients with CTCAE grade ≥3 event (15 mg (N = 3)): 0 N (%)
- Constipation, CTCAE any grade, patients with AEs (15 mg (N = 3)): 0 N (%)
- Constipation, patients with CTCAE grade ≥3 event (15 mg (N = 3)): 0 N (%)
- Diarrhea, CTCAE any grade, patients with AEs (15 mg (N = 3)): 1 (33) N (%)
- Dizziness, CTCAE any grade, patients with AEs (15 mg (N = 3)): 0 N (%)
- Fatigue, CTCAE any grade, patients with AEs (15 mg (N = 3)): 1 (33) N (%)
- Fatigue, patients with CTCAE grade ≥3 event (15 mg (N = 3)): 0 N (%)
- Febrile neutropenia, patients with CTCAE grade ≥3 event (15 mg (N = 3)): 0 N (%)
- Insomnia, CTCAE any grade, patients with AEs (15 mg (N = 3)): 0 N (%)
- Nasopharyngitis, CTCAE any grade, patients with AEs (15 mg (N = 3)): 0 N (%)
- Nausea, CTCAE any grade, patients with AEs (15 mg (N = 3)): 1 (33) N (%)
- Neutropenia, patients with CTCAE grade ≥3 event (15 mg (N = 3)): 0 N (%)
- Pyrexia, CTCAE any grade, patients with AEs (15 mg (N = 3)): 3 (100) N (%)
- Rash, CTCAE any grade, patients with AEs (15 mg (N = 3)): 3 (100) N (%)
- Urinary tract infection, patients with CTCAE grade ≥3 event (15 mg (N = 3)): 0 N (%)
- Anorexia, patients with CTCAE grade ≥3 event (20 mg (N = 6)): 0 N (%)
- Any grade ≥3 event, patients with CTCAE grade ≥3 event (20 mg (N = 6)): 1 (17) N (%)
- Constipation, CTCAE any grade, patients with AEs (20 mg (N = 6)): 1 (17) N (%)
- Constipation, patients with CTCAE grade ≥3 event (20 mg (N = 6)): 0 N (%)
- Diarrhea, CTCAE any grade, patients with AEs (20 mg (N = 6)): 0 N (%)
- Dizziness, CTCAE any grade, patients with AEs (20 mg (N = 6)): 3 (50) N (%)
- Fatigue, CTCAE any grade, patients with AEs (20 mg (N = 6)): 2 (33) N (%)
- Fatigue, patients with CTCAE grade ≥3 event (20 mg (N = 6)): 0 N (%)
- Febrile neutropenia, patients with CTCAE grade ≥3 event (20 mg (N = 6)): 0 N (%)
- Insomnia, CTCAE any grade, patients with AEs (20 mg (N = 6)): 2 (33) N (%)
- Nasopharyngitis, CTCAE any grade, patients with AEs (20 mg (N = 6)): 2 (33) N (%)
- Nausea, CTCAE any grade, patients with AEs (20 mg (N = 6)): 1 (17) N (%)
- Neutropenia, patients with CTCAE grade ≥3 event (20 mg (N = 6)): 1 (17) N (%)
- Pyrexia, CTCAE any grade, patients with AEs (20 mg (N = 6)): 2 (33) N (%)
- Rash, CTCAE any grade, patients with AEs (20 mg (N = 6)): 2 (33) N (%)
- Urinary tract infection, patients with CTCAE grade ≥3 event (20 mg (N = 6)): 0 N (%)
- Patients who withdrew from the study due to an AE (20 mg dose cohort, grade 2 cystitis): one patient
- Anorexia, patients with CTCAE grade ≥3 event (25 mg (N = 6)): 1 (17) N (%)
- Any grade ≥3 event, patients with CTCAE grade ≥3 event (25 mg (N = 6)): 2 (33) N (%)
- Constipation, CTCAE any grade, patients with AEs (25 mg (N = 6)): 2 (33) N (%)
- Constipation, patients with CTCAE grade ≥3 event (25 mg (N = 6)): 1 (17) N (%)
- Diarrhea, CTCAE any grade, patients with AEs (25 mg (N = 6)): 2 (33) N (%)
- Dizziness, CTCAE any grade, patients with AEs (25 mg (N = 6)): 0 N (%)
- Fatigue, CTCAE any grade, patients with AEs (25 mg (N = 6)): 3 (50) N (%)
- Fatigue, patients with CTCAE grade ≥3 event (25 mg (N = 6)): 1 (17) N (%)
- Febrile neutropenia, patients with CTCAE grade ≥3 event (25 mg (N = 6)): 1 (17) N (%)
- Insomnia, CTCAE any grade, patients with AEs (25 mg (N = 6)): 1 (17) N (%)
- Nasopharyngitis, CTCAE any grade, patients with AEs (25 mg (N = 6)): 2 (33) N (%)
- Nausea, CTCAE any grade, patients with AEs (25 mg (N = 6)): 3 (50) N (%)
- Neutropenia, patients with CTCAE grade ≥3 event (25 mg (N = 6)): 0 N (%)
- Pyrexia, CTCAE any grade, patients with AEs (25 mg (N = 6)): 1 (17) N (%)
- Rash, CTCAE any grade, patients with AEs (25 mg (N = 6)): 0 N (%)
- Urinary tract infection, patients with CTCAE grade ≥3 event (25 mg (N = 6)): 1 (17) N (%)
- Anorexia, patients with CTCAE grade ≥3 event (Total, all doses (N = 18)): 1 (6) N (%)
- Any grade ≥3 event, patients with CTCAE grade ≥3 event (Total, all doses (N = 18)): 3 (17) N (%)
- Constipation, CTCAE any grade, patients with AEs (Total, all doses (N = 18)): 4 (22) N (%)
- Constipation, patients with CTCAE grade ≥3 event (Total, all doses (N = 18)): 1 (6) N (%)
- Diarrhea, CTCAE any grade, patients with AEs (Total, all doses (N = 18)): 5 (28) N (%)
- Dizziness, CTCAE any grade, patients with AEs (Total, all doses (N = 18)): 5 (28) N (%)
- Fatigue, CTCAE any grade, patients with AEs (Total, all doses (N = 18)): 7 (39) N (%)
- Fatigue, patients with CTCAE grade ≥3 event (Total, all doses (N = 18)): 1 (6) N (%)
- Febrile neutropenia, patients with CTCAE grade ≥3 event (Total, all doses (N = 18)): 1 (6) N (%)
- Insomnia, CTCAE any grade, patients with AEs (Total, all doses (N = 18)): 4 (22) N (%)
- Nasopharyngitis, CTCAE any grade, patients with AEs (Total, all doses (N = 18)): 4 (22) N (%)
- Nausea, CTCAE any grade, patients with AEs (Total, all doses (N = 18)): 7 (39) N (%)
- Neutropenia, patients with CTCAE grade ≥3 event (Total, all doses (N = 18)): 1 (6) N (%)
- Pyrexia, CTCAE any grade, patients with AEs (Total, all doses (N = 18)): 6 (33) N (%)
- Rash, CTCAE any grade, patients with AEs (Total, all doses (N = 18)): 5 (28) N (%)
- Urinary tract infection, patients with CTCAE grade ≥3 event (Total, all doses (N = 18)): 1 (6) N (%)
- Deaths during the study (all doses 10-25 mg): no deaths
- Patients reporting fatigue (AE) [1]: 39%
- Patients reporting nausea (AE) [1]: 39%
- Patients reporting pyrexia (AE) [1]: 33%
- Patients who experienced at least one AE [1]: All patients
- Patients who experienced CTCAE grade ≥3 events (all doses, 18 patients, one in 20 mg, two in 25 mg cohort): Three
- Tolerability (doses up to 25 mg weekly): generally well tolerated
